Laboratory results taken from ChEMBL document CHEMBL1201862, “PubChem BioAssay data set” (2004).
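Cells were grown in 96-well plates and exposed to each compound for 48 hours at five concentrations; endpoints were interpolated linearly between bracketing concentrations, or set to the highest concentration if not reached. GI50 marks 50% less growth.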 Active and inactive are the calls of the source. Cut-off read from the data, not from the text of the source: active = GI50 up to about 1.1 µM and inactive = higher.

Assays:
Assay in all cases: inhibition of tumour cell growth, NCI panel, 48 h
SK-MEL-5 = system: SK-MEL-5
PC-3 = system: PC-3
CCRF-CEM = system: CCRF-CEM
COLO 205 = system: COLO 205
U-251 = system: U-251
HT-29 = system: HT-29
HL-60 = system: HL-60
MOLT-4 = system: MOLT-4
IGROV-1 = system: IGROV-1
CAKI-1 = system: CAKI-1
Malme-3M = system: Malme-3M
SF-539 = system: SF-539
NCI-H522 = system: NCI-H522
OVCAR-3 = system: OVCAR-3
OVCAR-4 = system: OVCAR-4
KM12 = system: KM12
SK-MEL-28 = system: SK-MEL-28
SN12C = system: SN12C
NCI/ADR-RES = system: NCI/ADR-RES
MDA-N = system: MDA-N
HOP-62 = system: HOP-62
OVCAR-8 = system: OVCAR-8
K562 = system: K562
NCI-H226 = system: NCI-H226
HOP-92 = system: HOP-92
NCI-H23 = system: NCI-H23
UO-31 = system: UO-31
MDA-MB-231 = system: MDA-MB-231
SF-295 = system: SF-295
SNB-75 = system: SNB-75
UACC-257 = system: UACC-257
SK-OV-3 = system: SK-OV-3
ACHN = system: ACHN
786-0 = system: 786-0
HCT-15 = system: HCT-15
Hs-578T = system: Hs-578T
T47D = system: T47D
SF-268 = system: SF-268
UACC-62 = system: UACC-62
MDA-MB-435 = system: MDA-MB-435
RXF 393 = system: RXF 393
SW-620 = system: SW-620
BT-549 = system: BT-549
NCI-H460 = system: NCI-H460
RPMI-8226 = system: RPMI-8226
SNB-19 = system: SNB-19
MCF7 = system: MCF7
SK-MEL-2 = system: SK-MEL-2
LOX IMVI = system: LOX IMVI
DU-145 = system: DU-145
TK-10 = system: TK-10
M14 = system: M14
HCT-116 = system: HCT-116
SR = system: SR
OVCAR-5 = system: OVCAR-5
HCC 2998 = system: HCC 2998
EKVX = system: EKVX
A549 = system: A549
A498 = system: A498

Measured: GI50

CCN(CCCl)c1cc(CN(C)C)cc(NC(=O)c2ccc(C(=O)Nc3cc(CN(C)C)cc(N(CC)CCCl)c3)cc2)c1
inactive: NCI/ADR-RES 42 µM | UO-31 5.21 µM | EKVX 1.31 µM
5.69 µM: HCT-15
active: SK-MEL-5 0.158 µM | PC-3 0.19 µM | CCRF-CEM 0.0156 µM | COLO 205 0.147 µM | U-251 0.0723 µM | HT-29 0.0951 µM | HL-60 < 0.01 µM | MOLT-4 0.0183 µM | IGROV-1 0.135 µM | CAKI-1 0.272 µM | Malme-3M 0.292 µM | SF-539 0.0762 µM | NCI-H522 0.0231 µM | OVCAR-3 0.384 µM | OVCAR-4 0.5 µM | KM12 0.234 µM | SK-MEL-28 0.159 µM | SN12C 0.0502 µM | MDA-N 0.154 µM | HOP-62 0.133 µM | OVCAR-8 0.224 µM | K562 0.0733 µM | NCI-H226 0.0697 µM | HOP-92 0.184 µM | NCI-H23 0.0665 µM | MDA-MB-231 0.323 µM | SF-295 0.182 µM | SNB-75 0.114 µM | UACC-257 0.356 µM | SK-OV-3 0.226 µM | ACHN 0.162 µM | 786-0 0.069 µM | Hs-578T 0.103 µM | T47D 0.134 µM | SF-268 0.0502 µM | UACC-62 0.0736 µM | MDA-MB-435 0.162 µM | RXF 393 0.0278 µM | SW-620 0.149 µM | BT-549 0.226 µM | NCI-H460 < 0.0211 µM | RPMI-8226 0.0885 µM | SNB-19 0.0873 µM | MCF7 0.017 µM | SK-MEL-2 0.12 µM | LOX IMVI 0.0826 µM | DU-145 0.504 µM | TK-10 0.861 µM | M14 0.291 µM | HCT-116 0.0962 µM | SR 0.0228 µM | OVCAR-5 0.24 µM | HCC 2998 0.0762 µM | A549 0.0955 µM

C=CCc1cccc2cc(C(=O)NC3CCCCC3)c(=N)oc12
14.1 µM: HCT-15
inactive: SK-MEL-5 14 µM | PC-3 16.1 µM | CCRF-CEM 17.5 µM | COLO 205 16.7 µM | U-251 27.2 µM | HT-29 27.2 µM | HL-60 41 µM | MOLT-4 > 100 µM | IGROV-1 > 100 µM | CAKI-1 16.8 µM | Malme-3M > 100 µM | NCI-H522 > 100 µM | OVCAR-3 14.1 µM | OVCAR-4 20.9 µM | KM12 16.9 µM | SK-MEL-28 17.3 µM | SN12C 14.9 µM | NCI/ADR-RES 27.4 µM | MDA-N 19.1 µM | HOP-62 18.9 µM | OVCAR-8 32.6 µM | K562 > 100 µM | NCI-H226 20.1 µM | HOP-92 35 µM | NCI-H23 19.9 µM | MDA-MB-231 16 µM | SNB-75 15.8 µM | UACC-257 25.1 µM | SK-OV-3 24 µM | ACHN 11.1 µM | 786-0 14.5 µM | Hs-578T 11.3 µM | T47D 11.4 µM | SF-268 17.7 µM | UACC-62 16.3 µM | MDA-MB-435 20.7 µM | RXF 393 31.4 µM | SW-620 33.4 µM | BT-549 33.7 µM | NCI-H460 16.1 µM | RPMI-8226 45.6 µM | SNB-19 21.4 µM | MCF7 26.2 µM | SK-MEL-2 3.98 µM | LOX IMVI 15.4 µM | DU-145 16.1 µM | M14 18 µM | HCT-116 13.9 µM | SR 63.8 µM | A498 16.7 µM | OVCAR-5 17.9 µM | HCC 2998 16.3 µM | EKVX > 100 µM | A549 32.2 µM

O=C(C/C(=N/O)c1cc(-c2ccccc2)no1)c1ccccc1
> 100 µM: HCT-15
inactive: SK-MEL-5 80.9 µM | PC-3 77.6 µM | CCRF-CEM > 100 µM | COLO 205 > 100 µM | U-251 28.6 µM | HT-29 > 100 µM | HL-60 29 µM | MOLT-4 31.8 µM | IGROV-1 30 µM | CAKI-1 36.6 µM | Malme-3M 41.4 µM | SF-539 19.3 µM | NCI-H522 18.7 µM | OVCAR-3 23.2 µM | OVCAR-4 26.5 µM | KM12 > 100 µM | SK-MEL-28 > 100 µM | SN12C 38.7 µM | NCI/ADR-RES 25.8 µM | MDA-N > 100 µM | HOP-62 23.8 µM | OVCAR-8 21.7 µM | K562 41.3 µM | NCI-H226 20.8 µM | HOP-92 22.2 µM | NCI-H23 20.9 µM | UO-31 26.4 µM | MDA-MB-231 21.4 µM | SF-295 33.7 µM | UACC-257 79.8 µM | SK-OV-3 17.1 µM | ACHN 45 µM | 786-0 22.1 µM | Hs-578T 26.2 µM | T47D 35.8 µM | SF-268 18.7 µM | UACC-62 31 µM | MDA-MB-435 > 100 µM | RXF 393 19.8 µM | BT-549 28.7 µM | NCI-H460 39.6 µM | RPMI-8226 > 100 µM | SNB-19 26.5 µM | MCF7 44.5 µM | SK-MEL-2 26.1 µM | LOX IMVI 36.4 µM | DU-145 > 100 µM | TK-10 35.1 µM | M14 85.3 µM | HCT-116 20.4 µM | SR 13.6 µM | A498 > 100 µM | OVCAR-5 > 100 µM | HCC 2998 > 100 µM | EKVX 33.8 µM | A549 58.6 µM

Nc1ncnc2c1cnn2COCC(O)CO (centres undefined)
inactive: SK-MEL-5 > 100 µM | PC-3 > 100 µM | CCRF-CEM > 100 µM | COLO 205 > 100 µM | U-251 > 100 µM | HT-29 > 100 µM | MOLT-4 > 100 µM | IGROV-1 > 100 µM | CAKI-1 > 100 µM | Malme-3M > 100 µM | SF-539 > 100 µM | NCI-H522 > 100 µM | OVCAR-3 > 100 µM | OVCAR-4 > 100 µM | KM12 > 100 µM | SK-MEL-28 > 100 µM | SN12C > 100 µM | NCI/ADR-RES > 100 µM | MDA-N > 100 µM | HOP-62 > 100 µM | OVCAR-8 > 100 µM | K562 > 100 µM | NCI-H226 > 100 µM | HOP-92 > 100 µM | NCI-H23 > 100 µM | UO-31 > 100 µM | MDA-MB-231 > 100 µM | SF-295 > 100 µM | UACC-257 > 100 µM | SK-OV-3 > 100 µM | ACHN > 100 µM | 786-0 > 100 µM | Hs-578T > 100 µM | T47D > 100 µM | SF-268 > 100 µM | UACC-62 > 100 µM | MDA-MB-435 > 100 µM | RXF 393 > 100 µM | SW-620 > 100 µM | BT-549 > 100 µM | NCI-H460 > 100 µM | RPMI-8226 > 100 µM | SNB-19 > 100 µM | MCF7 > 100 µM | SK-MEL-2 > 100 µM | LOX IMVI > 100 µM | DU-145 > 100 µM | TK-10 > 100 µM | M14 > 100 µM | HCT-116 > 100 µM | SR > 100 µM | A498 > 100 µM | OVCAR-5 > 100 µM | HCC 2998 > 100 µM | EKVX > 100 µM | A549 > 100 µM
> 100 µM: HCT-15

CCOC(=O)C(c1c[nH]c2ccccc12)(c1c[nH]c2ccccc12)c1c[nH]c2ccccc12
inactive: SK-MEL-5 34.4 µM | PC-3 19.7 µM | CCRF-CEM 17.2 µM | COLO 205 15.7 µM | U-251 36.9 µM | HT-29 34.4 µM | HL-60 15.9 µM | MOLT-4 5.87 µM | IGROV-1 33.3 µM | CAKI-1 29.4 µM | Malme-3M 30.4 µM | SF-539 42.4 µM | NCI-H522 27 µM | OVCAR-3 27.5 µM | KM12 28.5 µM | SK-MEL-28 33.7 µM | SN12C 43 µM | NCI/ADR-RES 82.6 µM | MDA-N 31.9 µM | HOP-62 39.6 µM | OVCAR-8 36.2 µM | K562 12.9 µM | HOP-92 37 µM | NCI-H23 70.8 µM | UO-31 30.3 µM | MDA-MB-231 36.8 µM | SF-295 30.4 µM | SNB-75 20.4 µM | UACC-257 34 µM | SK-OV-3 30.1 µM | ACHN 37.1 µM | 786-0 44.5 µM | Hs-578T 23.7 µM | T47D 16.2 µM | SF-268 32.8 µM | UACC-62 25.9 µM | MDA-MB-435 18.7 µM | RXF 393 21.7 µM | SW-620 19.8 µM | BT-549 44.4 µM | NCI-H460 27.3 µM | RPMI-8226 11.7 µM | SNB-19 26.5 µM | MCF7 19.7 µM | SK-MEL-2 18.8 µM | LOX IMVI 31.9 µM | DU-145 39.8 µM | TK-10 41.3 µM | M14 28.3 µM | HCT-116 29.2 µM | SR 23.6 µM | A498 35.2 µM | OVCAR-5 55 µM | HCC 2998 17.1 µM | EKVX 37.7 µM | A549 30.7 µM
34.7 µM: HCT-15
